Experimental findings from publication PMC3823643 (Nature structural & molecular biology, 2013) are described below.

SMILES strings stand for the structures.

Test [1] deals with T1, Danio rerio (zebrafish) DHFR (zDHFR) (Danio rerio, UniProt A0A8M1P929).
T1 sequence (A0A8M1P929 1-190): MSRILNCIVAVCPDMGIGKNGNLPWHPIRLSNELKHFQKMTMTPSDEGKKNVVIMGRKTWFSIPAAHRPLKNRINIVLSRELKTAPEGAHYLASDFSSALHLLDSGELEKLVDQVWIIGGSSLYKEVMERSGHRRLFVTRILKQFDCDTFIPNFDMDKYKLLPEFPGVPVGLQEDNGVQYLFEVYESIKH
Put plainly: […] HSQC NMR. Format: binding.

Test [2] has as its target T2, human dihydrofolate reductase (hDHFR) (Homo sapiens, UniProt P00374).
T2 sequence (P00374 1-187): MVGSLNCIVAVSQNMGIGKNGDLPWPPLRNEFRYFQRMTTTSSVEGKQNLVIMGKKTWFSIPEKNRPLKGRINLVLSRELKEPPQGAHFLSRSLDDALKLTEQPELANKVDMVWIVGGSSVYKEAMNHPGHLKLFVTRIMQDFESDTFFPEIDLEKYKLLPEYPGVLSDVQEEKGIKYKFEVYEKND
As to the kind of experiment: X-ray crystal structure. Format: biochemical.

In test [3] the target is E. coli dihydrofolate reductase (ecDHFR) (Escherichia coli, UniProt P0ABQ4). As to the kind of experiment: product inhibition of initial rate, absorbance at […] nm. Format: biochemical.
Test [4] concerns the target E. coli dihydrofolate reductase (ecDHFR) N23PP S148A (Escherichia coli, UniProt P0ABQ4, INS23P/N23P/S148A). The description is as above. Format: biochemical.

What is called IC50 is the concentration that gives 50% inhibition. A higher IC50 goes with a need for much substance.

In the case of `Nc1nc(=O)c2nc(CNc3ccc(C(=O)N[C@@H](CCC(=O)O)C(=O)O)cc3)cnc2[nH]1` [FOL, folic acid], in test [1], the “15N HSQC NMR” value was “Each panel shows a superposition of E– NADP^+–FOL (model Michaelis complex, black) and E–NADP^+– THF”.
`NC(=O)c1ccc[n+]([C@@H]2O[C@H](COP(=O)(O)OP(=O)(O)OC[C@H]3O[C@@H](n4cnc5c(N)ncnc54)[C@H](OP(=O)(O)O)[C@@H]3O)[C@@H](O)[C@H]2O)c1` [NADP+, NADP^+]: the IC50 is around 620 µM in test [2], 6520 µM in test [3] and 1270 µM in test [4].
